# Measured values taken from publication PMC11862108, “Nitro‐fatty acids‐mediated nitroalkylation modulates fine‐tuning catalase antioxidant function during salinity stress in plants” (Protein Science : A Publication of the Protein Society, 2025).
# Experiments:
# [1] = target: T1, Arabidopsis recombinant CAT2 protein (Arabidopsis thaliana, UniProt P25819); test: H2O2 disappearance at […] nm; assay type: biochemical; details: 30 min preincubation at 25 °C; covalent (nitroalkylation of His); NO2-Ln concentration not given; MeOH vehicle control; regioisomer not defined
# T1 construct: commercial recombinant protein (LSBio, Life Span BioSciences); heme enzyme
# T1 sequence (P25819 1-492): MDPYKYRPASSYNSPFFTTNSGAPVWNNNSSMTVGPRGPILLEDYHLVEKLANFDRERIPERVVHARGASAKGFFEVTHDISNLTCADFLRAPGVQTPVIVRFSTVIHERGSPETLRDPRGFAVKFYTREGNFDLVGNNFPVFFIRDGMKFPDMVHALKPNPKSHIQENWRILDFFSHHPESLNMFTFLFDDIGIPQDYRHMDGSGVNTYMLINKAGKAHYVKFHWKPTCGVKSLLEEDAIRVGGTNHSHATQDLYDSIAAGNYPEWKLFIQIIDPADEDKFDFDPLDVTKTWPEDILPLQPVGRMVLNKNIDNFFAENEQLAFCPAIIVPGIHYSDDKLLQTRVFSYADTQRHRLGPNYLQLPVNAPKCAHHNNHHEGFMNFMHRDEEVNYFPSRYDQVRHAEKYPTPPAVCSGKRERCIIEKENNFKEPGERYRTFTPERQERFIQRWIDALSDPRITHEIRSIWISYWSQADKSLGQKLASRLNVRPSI
# [2] = target: T2, CAT from bovine liver (Bos taurus, UniProt P00432); test: H2O2 disappearance at […] nm; assay type: biochemical; details: 30 min preincubation at 25 °C; NO2-Ln concentration not given; MeOH vehicle control; regioisomer not defined
# T2 construct: commercial bovine liver catalase (Sigma)
# T2 sequence (P00432 2-527): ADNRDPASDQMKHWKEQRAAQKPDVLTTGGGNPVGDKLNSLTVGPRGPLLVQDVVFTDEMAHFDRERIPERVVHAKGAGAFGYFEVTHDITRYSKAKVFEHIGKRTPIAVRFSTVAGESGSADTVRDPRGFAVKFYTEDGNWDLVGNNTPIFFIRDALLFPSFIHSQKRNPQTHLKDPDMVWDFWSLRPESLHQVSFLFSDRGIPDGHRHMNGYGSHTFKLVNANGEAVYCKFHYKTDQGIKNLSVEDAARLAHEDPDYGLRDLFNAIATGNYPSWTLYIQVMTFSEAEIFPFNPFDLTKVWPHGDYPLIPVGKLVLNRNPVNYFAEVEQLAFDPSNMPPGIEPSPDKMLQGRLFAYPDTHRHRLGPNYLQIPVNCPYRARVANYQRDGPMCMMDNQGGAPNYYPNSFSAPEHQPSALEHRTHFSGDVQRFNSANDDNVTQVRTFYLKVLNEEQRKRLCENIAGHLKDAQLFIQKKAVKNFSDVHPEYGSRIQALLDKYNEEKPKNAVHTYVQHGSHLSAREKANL
substance,measurement,setting,value
NO2-Ln,% inhibition,[1],36%
same,% inhibition,[2],60%
